From patent US7759337B2, “Phthalazine compounds and methods of use” (Amgen Inc., priority 2005, dated 2010)

System: production of TNF by monocytes activated with bacterial lipopolysaccharide (LPS)
Test: Lipopolysaccharide-activated monocyte TNF production assay
Format: cell-based
Details: Homo sapiens; whole blood monocyte assay (LPS induced TNF release)
How it was run: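 Adherent human PBMC-derived monocytes preincubated 60 min with nine two-fold compound dilutions, then stimulated with E. coli K532 LPS (30 ng/mL in the added medium) for 4 h at 37 °C. Supernatant TNF measured by sandwich ELISA; IC50 is the compound concentration halving TNF production, from second-order polynomial fits.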

## Cc1ccc(C(=O)NC2CC2)cc1-c1ccc2c(-c3ccccc3F)nncc2c1 [Example 246, N-cyclopropyl-3-[1-(2-fluorophenyl)phthalazin-6-yl]-4-methylbenzamide]
  IC50: ≤ 5 µM

## CNc1noc2c(-c3ccc4c(-c5cccnc5C)nncc4c3)c(C)ccc12 [Example 247, N,6-dimethyl-7-[1-(2-methylpyridin-3-yl)phthalazin-6-yl]-1,2-benzisoxazol-3-amine]
  IC50: ≤ 5 µM

## COc1c(F)cccc1-c1nncc2cc(-c3cc(C(=O)NC4CC4)ccc3C)ccc12 [Example 248, N-cyclopropyl-3-[1-(3-fluoro-2-methoxyphenyl)phthalazin-6-yl]-4-methylbenzamide]
  IC50: ≤ 5 µM

## Cc1ccc(C(=O)NC2CC2)cc1-c1ccc2c(-c3ccc(C(F)(F)F)cc3)nncc2c1 [Example 249, N-cyclopropyl-4-methyl-3-{1-[4-(trifluoromethyl)phenyl]phthalazin-6-yl}benzamide]
  IC50: ≤ 5 µM

## Cc1ccc(C(=O)NC2CC2)cc1-c1ccc2c(-c3ccccc3)nncc2c1 [Example 250, N-cyclopropyl-4-methyl-3-(1-phenylphthalazin-6-yl)benzamide]
  IC50: ≤ 5 µM

## CCc1ccccc1-c1nncc2cc(-c3cc(C(=O)NC4CC4)ccc3C)ccc12 [Example 251, N-cyclopropyl-3-[1-(2-ethylphenyl)phthalazin-6-yl]-4-methylbenzamide]
  IC50: ≤ 5 µM

## COc1cc(-c2nncc3cc(-c4cc(C(N)=O)ccc4C)ccc23)c(C)cn1 [Example 252, 3-[1-(2-methoxy-5-methylpyridin-4-yl)phthalazin-6-yl]-4-methylbenzamide]
  IC50: ≤ 5 µM

## Cc1ccc(C(=O)NC2CC2)cc1-c1ccc2c(-c3ccc(C(C)(C)C)cc3)nncc2c1 [Example 253, 3-[1-(4-tert-butylphenyl)phthalazin-6-yl]-N-cyclopropyl-4-methylbenzamide]
  IC50: ≤ 5 µM

## Cc1ccc(C(=O)NC2CC2)cc1-c1ccc2c(-c3ccccc3C(F)(F)F)nncc2c1 [Example 254, N-cyclopropyl-4-methyl-3-{1-[2-(trifluoromethyl)phenyl]phthalazin-6-yl}benzamide]
  IC50: ≤ 5 µM

## Cc1ccc(C(N)=O)cc1-c1ccc2c(-c3cccnc3C)nncc2c1 [Example 255, 4-methyl-3-[1-(2-methylpyridin-3-yl)phthalazin-6-yl]benzamide]
  IC50: ≤ 5 µM

## Cc1ccc(C(=O)NC2CC2)cc1-c1ccc2c(-c3ccc(S(C)(=O)=O)cc3C)nncc2c1 [Example 256, N-cyclopropyl-4-methyl-3-{1-[2-methyl-4-(methylsulfonyl)phenyl]phthalazin-6-yl}benzamide]
  IC50: ≤ 5 µM

## Cc1ccc(C(=O)NC2CC2)cc1-c1ccc2c(-c3ccc(Cl)cc3C)nncc2c1 [Example 257, 3-[1-(4-chloro-2-methylphenyl)phthalazin-6-yl]-N-cyclopropyl-4-methylbenzamide]
  IC50: ≤ 5 µM

## COc1ccc(-c2nncc3cc(-c4cc(C(=O)NC5CC5)ccc4C)ccc23)c(C(F)(F)F)c1 [Example 258, N-cyclopropyl-3-{1-[4-methoxy-2-(trifluoromethyl)phenyl]phthalazin-6-yl}-4-methylbenzamide]
  IC50: ≤ 5 µM

## Cc1ccc(C(N)=O)cc1-c1ccc2c(-c3cc(F)ncc3C)nncc2c1 [Example 259, 3-[1-(2-fluoro-5-methylpyridin-4-yl)phthalazin-6-yl]-4-methylbenzamide]
  IC50: ≤ 5 µM

## CSc1ccc(-c2nncc3cc(-c4cc(C(N)=O)ccc4C)ccc23)c(C)c1 [Example 260, 4-methyl-3-{1-[2-methyl-4-(methylsulfanyl)phenyl]phthalazin-6-yl}benzamide]
  IC50: ≤ 5 µM

## CSc1ccc(-c2nncc3cc(-c4cc(C(=O)NC5CC5)ccc4C)ccc23)c(C)c1 [Example 261, N-cyclopropyl-4-methyl-3-{1-[2-methyl-4-(methylsulfanyl)phenyl]phthalazin-6-yl}benzamide]
  IC50: ≤ 5 µM

## COc1cc(F)ccc1-c1nncc2cc(-c3cc(C(=O)NC4CC4)ccc3C)ccc12 [Example 262, N-cyclopropyl-3-[1-(4-fluoro-2-methoxyphenyl)phthalazin-6-yl]-4-methylbenzamide]
  IC50: ≤ 5 µM

## Cc1ccc(C(=O)NC2CC2)cc1-c1ccc2c(-c3ccncc3C)nncc2c1 [Example 263, N-cyclopropyl-4-methyl-3-[1-(3-methylpyridin-4-yl)phthalazin-6-yl]benzamide]
  IC50: ≤ 5 µM

## COc1ncc(-c2nncc3cc(-c4cc(C(=O)NC5CC5)ccc4C)ccc23)cn1 [Example 264, N-cyclopropyl-3-[1-(2-methoxypyrimidin-5-yl)phthalazin-6-yl]-4-methylbenzamide]
  IC50: ≤ 5 µM

## Cc1ccc(C(=O)N(C)C)cc1-c1ccc2c(N3CCOCC3)nncc2c1 [Example 265, N,N,4-trimethyl-3-(1-morpholin-4-ylphthalazin-6-yl)benzamide]
  IC50: ≤ 5 µM

## Cc1ccc(C(=O)NC2CC2)cc1-c1ccc2c(N3CCCOCC3)nncc2c1 [Example 266, N-cyclopropyl-4-methyl-3-[1-(1,4-oxazepan-4-yl)phthalazin-6-yl]benzamide]
  IC50: ≤ 5 µM

## Cc1ccc(C(=O)NC2CC2)cc1-c1ccc2c(N3CCN4C(=O)CC[C@@H]4C3)nncc2c1 [Example 267, 3-{1-[(8aR)-6-oxohexahydropyrrolo[1,2-a]pyrazin-2(1H)-yl]phthalazin-6-yl}-N-cyclopropyl-4-methylbenzamide]
  IC50: ≤ 5 µM

## Cc1ccc(C(=O)NC2CCC2)cc1-c1ccc2c(N3CCN4C(=O)OC[C@@H]4C3)nncc2c1 [Example 269, 3-{1-[(8aS)-3-oxotetrahydro[1,3]oxazolo[3,4-a]pyrazin-7(1H)-yl]phthalazin-6-yl}-N-cyclobutyl-4-methylbenzamide]
  IC50: ≤ 5 µM

## Cc1ccc(C(N)=O)cc1-c1ccc2c(N3CCCOCC3)nncc2c1 [Example 270, 4-methyl-3-[1-(1,4-oxazepan-4-yl)phthalazin-6-yl]benzamide]
  IC50: ≤ 5 µM

## Cc1ccc(C(=O)NC2CC2)cc1-c1ccc2c(N3CCNC(=O)[C@@H]3C)nncc2c1 [Example 271, N-cyclopropyl-4-methyl-3-{1-[(2S)-2-methyl-3-oxopiperazin-1-yl]phthalazin-6-yl}benzamide]
  IC50: ≤ 5 µM

## Cc1ccc(C(=O)NC2CC2)cc1-c1ccc2c(N3CCC[C@H]3C(F)(F)F)nncc2c1 [Example 273, N-cyclopropyl-4-methyl-3-{1-[(2S)-2-(trifluoromethyl)pyrrolidin-1-yl]phthalazin-6-yl}benzamide]
  IC50: ≤ 5 µM

## Cc1ccc(C(=O)NC2CC2)cc1-c1ccc2c(N3CCN4CCC[C@H]4C3)nncc2c1 [Example 274, 3-{1-[(8aS)-hexahydropyrrolo[1,2-a]pyrazin-2(1H)-yl]phthalazin-6-yl}-N-cyclopropyl-4-methylbenzamide]
  IC50: ≤ 5 µM

## Cc1ccc(C(=O)NC2CC2)cc1-c1ccc2c(N3CCNC(=O)CC3)nncc2c1 [Example 275, N-cyclopropyl-4-methyl-3-[1-(5-oxo-1,4-diazepan-1-yl)phthalazin-6-yl]benzamide]
  IC50: ≤ 5 µM

## Cc1ccc(C(=O)NC2CC2)cc1-c1cnc2c(N3CCOCC3)nncc2c1 [Example 276, N-cyclopropyl-4-methyl-3-(8-morpholin-4-ylpyrido[2,3-d]pyridazin-3-yl)benzamide]
  IC50: ≤ 5 µM

## Cc1ccc(C(N)=O)cc1-c1ccc2c(N3CCNC(=O)CC3)nncc2c1 [Example 277, 4-methyl-3-[1-(5-oxo-1,4-diazepan-1-yl)phthalazin-6-yl]benzamide]
  IC50: ≤ 5 µM

## CONC(=O)c1ccc(C)c(-c2ccc3c(N4CCOCC4)nncc3c2)c1 [Example 278, N-methoxy-4-methyl-3-(1-morpholin-4-ylphthalazin-6-yl)benzamide]
  IC50: ≤ 5 µM

## CONC(=O)c1ccc(C)c(-c2ccc3c(NC(C)C)nncc3c2)c1 [Example 279, 3-[1-(isopropylamino)phthalazin-6-yl]-N-methoxy-4-methylbenzamide]
  IC50: ≤ 5 µM

## Cc1ccc(C(N)=O)cc1-c1ccc2c(N3CCN4C(=O)OC[C@@H]4C3)nncc2c1 [Example 280, 3-{1-[(8aS)-3-oxotetrahydro[1,3]oxazolo[3,4-a]pyrazin-7(1H)-yl]phthalazin-6-yl}-4-methylbenzamide]
  IC50: ≤ 5 µM

## Cc1ccc(C(N)=O)cc1-c1ccc2c(N(C)C)nncc2c1 [Example 281, 3-[1-(dimethylamino)phthalazin-6-yl]-4-methylbenzamide]
  IC50: ≤ 5 µM

## Cc1ccc(C(N)=O)cc1-c1ccc2c(N3CCN4CCC[C@H]4C3)nncc2c1 [Example 282, 3-{1-[(8aS)-hexahydropyrrolo[1,2-a]pyrazin-2(1H)-yl]phthalazin-6-yl}-4-methylbenzamide]
  IC50: ≤ 5 µM

## Cc1ccc(C(=O)NC2CCC2)cc1-c1ccc2c(N(C)C)nncc2c1 [Example 283, N-cyclobutyl-3-[1-(dimethylamino)phthalazin-6-yl]-4-methylbenzamide]
  IC50: ≤ 5 µM

## Cc1ccc(C(N)=O)cc1-c1ccc2c(N3CCN4C(=O)OC[C@H]4C3)nncc2c1 [Example 284, 3-{1-[(8aR)-3-oxotetrahydro[1,3]oxazolo[3,4-a]pyrazin-7(1H)-yl]phthalazin-6-yl}-4-methylbenzamide]
  IC50: ≤ 5 µM

## Cc1ccc(C(N)=O)cc1-c1ccc2c(N3CCN4C(=O)CC[C@H]4C3)nncc2c1 [Example 285, 3-{1-[(8aS)-6-oxohexahydropyrrolo[1,2-a]pyrazin-2(1H)-yl]phthalazin-6-yl}-4-methylbenzamide]
  IC50: ≤ 5 µM

## Cc1ccc(C(=O)NC2CC2)cc1-c1ccc2c(-c3ccc(F)cc3C)nncc2c1 [Example 286, N-cyclopropyl-3-[1-(4-fluoro-2-methylphenyl)phthalazin-6-yl]-4-methylbenzamide]
  IC50: ≤ 5 µM

## Cc1ccc(C(=O)NC2CC2)cc1-c1ccc2c(-c3c[nH]c(=O)cc3C)nncc2c1 [Example 287, N-cyclopropyl-4-methyl-3-[1-(4-methyl-6-oxo-1,6-dihydropyridin-3-yl)phthalazin-6-yl]benzamide]
  IC50: ≤ 5 µM

## Cc1ccc(C(=O)NC2CC2)cc1-c1ccc2c(O)nncc2c1 [Example 288, N-cyclopropyl-3-(1-hydroxyphthalazin-6-yl)-4-methylbenzamide]
  IC50: ≤ 5 µM
